By IC50 is commonly meant the concentration at which inhibition is half-maximal.

The target in the assay is T1, IL-17A/A (Homo sapiens, UniProt Q16552).
T1 construct: purchased Genscript Z03228
T1 sequence (Q16552 24-155): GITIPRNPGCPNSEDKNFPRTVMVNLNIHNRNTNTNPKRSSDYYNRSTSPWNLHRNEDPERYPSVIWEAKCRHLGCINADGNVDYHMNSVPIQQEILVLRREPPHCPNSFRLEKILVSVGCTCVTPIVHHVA
Description: IL-17A/A HEK-Blue Cell Assay. Type of assay: cell-based. The following applies: IL-17A/A inhibition, HEK-Blue IL-17A reporter cell line, SEAP readout at A630, incubated for 20 hours. The procedure: Example 3: IL-17A/A HEK-Blue Cell Assay
The HEK-Blue IL-17A reporter cell line (Fisher #NC1408637) was used for cell-based IL-17A/A inhibition assays. Cells were grown and prepared for assays according to the manufacturer's instructions. This cell line consists of HEK 293 cells that were designed to expressed IL-17RA, IL-17RC, and the ActI adapter molecule, the combination of which, when stimulated by IL-17A/A activates a NFκB promoter and drives expression of a recombinant Secreted Alkaline Phosphatase (SEAP) gene protein. Media from the cells is then added to a development reagent (Quanti-Blue Substrate, Fisher #NC9711613), and read at A630.
Compounds were titrated in DMSO, with a top final compound concentration of 10 μM, 1 uM, or 0.3 μM, and added to the cells immediately before adding IL-17A/A (Genscript #Z03228). The cells, compound, and IL-17A/A were then incubated for 20 hours before media was removed for SEAP analysis. The resulting inhibition curve was then analyzed using Graphpad Prism 7.0, and IC50 values were determined using a 4-parameter nonlinear fit. DMSO was added to a universal final concentration of 0.1% to optimize background.
In the case of `CCn1nccc1C(=O)N[C@H](c1nc2cc(C[C@H]3CCNC3=O)ccc2[nH]1)C(C1CC1)C1CC1` [Compound 16], the IC50 lay within 100 to 1000 nM. For `CCn1nccc1C(=O)N[C@H](c1nc2cc(C(C)C3CCNC3=O)ccc2[nH]1)C(C1CC1)C1CC1` (stereo partly shown) [Compound 23], the IC50 was greater than 1000 nM. On to `CCn1nccc1C(=O)N[C@H](c1nc2ccc(C(COC)C3C[C@@H](C(F)(F)F)NC3=O)cc2[nH]1)C(C1CC1)C1CC1` (stereo partly shown) [Compound 78], for which the IC50 is greater than 1000 nM. On to `CCn1nccc1C(=O)N[C@@H](c1nc2nc(CC3CCNC3=O)ccc2[nH]1)C1CCC(F)(F)CC1` (stereo partly shown) [Compound 29], for which the IC50 was greater than 1000 nM.

Regarding `CCn1nccc1C(=O)N[C@H](c1nc2ccc(C[C@H]3CCNC3=O)cc2[nH]1)[C@H]1CC[C@H](C)CC1` [Compound 61], the IC50 was less than 100 nM. In the case of `CCn1nccc1C(=O)N[C@H](c1nc2ccc(C[C@@H]3CCCNC3=O)cc2[nH]1)C(C1CC1)C1CC1` [Compound 18], the IC50 was greater than 1000 nM.

Regarding `CCn1nccc1C(=O)N[C@H](c1nc2cc(CC3CCNC3=O)cc(C#N)c2[nH]1)C1CCC(F)(F)CC1` (stereo partly shown) [Compound 57], the IC50 is 100 to 1000 nM. Turning to `CCn1nccc1C(=O)N[C@H](c1nc2cc(C[C@H]3CCNC3=O)ccc2[nH]1)C1CCC(F)(F)CC1` [Compound 7], the half-inhibitory concentration (IC50) was 100 to 1000 nM. With `CCn1nccc1C(=O)N[C@H](c1nc2c(F)c(C[C@H]3C[C@@H](C(F)(F)F)NC3=O)ccc2[nH]1)C(C1CC1)C1CC1` [Compound 40], the half-inhibitory concentration (IC50) was less than 100 nM. On to `CCn1nccc1C(=O)N[C@H](c1nc2ccc(C[C@H]3CCNC3=O)cc2[nH]1)[C@@H](C)[C@H]1CC[C@H](C)CC1` [Compound 66], for which the IC50 lay in the range of 100 to 1000 nM.

`CCn1nccc1C(=O)N[C@H](c1nc2cc(C[C@H]3CCNC3=O)cc(F)c2[nH]1)C(C1CC1)C1CC1` [Compound 32]: the 50% inhibitory concentration (IC50) is 100 to 1000 nM. Then `CCn1nccc1C(=O)N[C@H](c1nc2ccc(C(C)C3CCCNC3=O)cc2[nH]1)C(C1CC1)C1CC1` (stereo partly shown) [Compound 84], with 100 to 1000 nM; and `CCn1nccc1C(=O)N[C@H](c1nc2ccc(C[C@@H]3CC(F)(F)CNC3=O)cc2[nH]1)C(C1CC1)C1CC1` [Compound 75], with 100 to 1000 nM; and `CCn1nccc1C(=O)N[C@@H](c1nc2nc(C[C@H]3CCNC3=O)ccc2[nH]1)C1CCC(F)(F)CC1` [Compound 28], with greater than 1000 nM. Then `CCn1nccc1C(=O)N[C@H](c1nc2cc(CC3CCC(C(F)(F)F)NC3=O)cc(F)c2[nH]1)C(C1CC1)C1CC1` (stereo partly shown) [Compound 55], with greater than 1000 nM; and `CCn1nccc1C(=O)N[C@H](c1nc2cc(C(C)C3CCNC3=O)ccc2[nH]1)C(C1CC1)C1CC1` (stereo partly shown) [Compound 24], with greater than 1000 nM; and `CCn1nccc1C(=O)N[C@H](c1nc2ccc(C[C@H]3CCNC3=O)cc2[nH]1)[C@H](c1ccccc1Cl)C(C)C` [Compound 62], with greater than 1000 nM. `CCn1nccc1C(=O)N[C@H](c1nc2c(F)c(C[C@@H]3C[C@@H](C(F)(F)F)NC3=O)ccc2[nH]1)C(C1CC1)C1CC1` [Compound 37]: the half-maximal inhibitory concentration (IC50) was 100 to 1000 nM.

On to `CCn1nccc1C(=O)N[C@H](c1nc2cc(CC3CCC(C(F)(F)F)NC3=O)ccc2[nH]1)C(C1CC1)C1CC1` (stereo partly shown) [Compound 44], for which the IC50 is greater than 1000 nM. For `CCn1nccc1C(=O)N[C@H](c1nc2ccc(C[C@H]3CCCNC3=O)cc2[nH]1)[C@H]1CC[C@H](C)CC1` [Compound 87], the half-inhibitory concentration (IC50) was greater than 1000 nM.

For the compound `CCn1nccc1C(=O)N[C@H](c1nc2cc(C[C@@H]3CCNC3=O)ccc2[nH]1)C1CCC(F)(F)CC1` [Compound 8], the IC50 was greater than 1000 nM.

Take `CCn1nccc1C(=O)N[C@H](c1nc2ccc(CC3CC(F)(F)CNC3=O)cc2[nH]1)C(C1CC1)C1CC1` (stereo partly shown) [Compound 73]: the IC50 fell in the range of 100 to 1000 nM.

In the case of `CCn1nccc1C(=O)N[C@H](c1nc2ccc(C(COC)C3C[C@@H](C(F)(F)F)NC3=O)cc2[nH]1)C(C1CC1)C1CC1` (stereo partly shown) [Compound 79], the IC50 lay in the range of 100 to 1000 nM. As for `CCn1nccc1C(=O)N[C@H](c1nc2c(F)c(CC3CCC(C(F)(F)F)NC3=O)ccc2[nH]1)C(C1CC1)C1CC1` (single isomer, unassigned) [Compound 51], the IC50 was in the range of 100 to 1000 nM. Regarding `Cc1nonc1C(=O)N[C@H](c1nc2ccc(C[C@H]3CCNC3=O)cc2[nH]1)C1CCC(F)(F)CC1` [Compound 67], the IC50 fell in the range of 100 to 1000 nM.

Turning to `CCn1nccc1C(=O)N[C@H](c1nc2c(F)c(CC3CCC(C(F)(F)F)NC3=O)ccc2[nH]1)C(C1CC1)C1CC1` (single isomer, unassigned) [Compound 49], the half-maximal inhibitory concentration (IC50) was greater than 1000 nM. Then `CCn1nccc1C(=O)N[C@H](c1nc2c(F)c(CC3CCNC3=O)ccc2[nH]1)C(C1CC1)C1CC1` (mixture of isomers) [Compound 2, N-((1S)-2,2-dicyclopropyl-1-(7-fluoro-6-((2-oxopyrrolidin-3-yl)methyl)-1H-benzo[d]imidazol-2-yl)ethyl)-1-ethyl-1H-pyrazole-5-carboxamide], with 100 to 1000 nM; and `CCn1nccc1C(=O)N[C@H](c1nc2ccc(C[C@H]3CCNC3=O)cc2[nH]1)C(C1CCC1)C1CCC1` [Compound 64], with 100 to 1000 nM. Take `Cn1nccc1C(=O)N[C@H](c1nc2ccc(C[C@H]3CCNC3=O)cc2[nH]1)C(C1CC1)C1CC1` [Compound 59]: the IC50 lay within 100 to 1000 nM. On to `CCn1nccc1C(=O)N[C@H](c1nc2ccc(C(C)C3CCCNC3=O)cc2[nH]1)C(C1CC1)C1CC1` (stereo partly shown) [Compound 82], for which the IC50 fell in the range of 100 to 1000 nM. For the compound `CCn1nccc1C(=O)N[C@H](c1nc2ccc(C(C)C3CCCNC3=O)cc2[nH]1)C(C1CC1)C1CC1` (stereo partly shown) [Compound 83], the IC50 is greater than 1000 nM. Then `CCn1nccc1C(=O)N[C@H](c1nc2cc(C[C@H]3CCNC3=O)ccc2[nH]1)C1CCCCCC1` [Compound 6], with less than 100 nM. Consider `CCn1nccc1C(=O)N[C@H](c1nc2cc(CC3CCC(C(F)(F)F)NC3=O)ccc2[nH]1)C(C1CC1)C1CC1` (stereo partly shown) [Compound 45], for which the half-maximal inhibitory concentration (IC50) was in the range of 100 to 1000 nM. For `CCn1nccc1C(=O)N[C@H](c1nc2cc(C[C@@H]3CCNC3=O)cc(F)c2[nH]1)C1CCC(F)(F)CC1` [Compound 14] the value was greater than 1000 nM; for `CCn1nccc1C(=O)N[C@H](c1nc2c(F)c(C[C@H]3C[C@H](C(F)(F)F)NC3=O)ccc2[nH]1)C(C1CC1)C1CC1` [Compound 38], 100 to 1000 nM; for `O=C1N[C@H](C(F)(F)F)C[C@H]1Cc1ccc2nc([C@@H](NC(=O)C3(F)CC3)C(C3CC3)C3CC3)[nH]c2c1` [Compound 68], greater than 1000 nM.

As to `CCn1nccc1C(=O)N[C@H](c1nc2ccc(C(COC)C3C[C@@H](C(F)(F)F)NC3=O)cc2[nH]1)C(C1CC1)C1CC1` (stereo partly shown) [Compound 80], the IC50 lay within 100 to 1000 nM. For `CCn1nccc1C(=O)N[C@H](c1nc2cc(CC3CCC(C(F)(F)F)NC3=O)cc(F)c2[nH]1)C(C1CC1)C1CC1` (stereo partly shown) [Compound 54] the value was greater than 1000 nM.

On to `CCn1nccc1C(=O)N[C@H](c1nc2c(F)c(CC3CC(C(F)(F)F)NC3=O)ccc2[nH]1)C(C1CC1)C1CC1` (stereo partly shown) [Compound 39], for which the IC50 was greater than 1000 nM. Take `CCn1nccc1C(=O)N[C@H](c1nc2ccc(CC3CCCNC3=O)cc2[nH]1)C(C1CC1)C1CC1` (stereo partly shown) [Compound 17]: the IC50 was 100 to 1000 nM. Then `CCn1nccc1C(=O)N[C@H](c1nc2ccc(C(C)C3CCCNC3=O)cc2[nH]1)C(C1CC1)C1CC1` (stereo partly shown) [Compound 81], with greater than 1000 nM. `CCn1nccc1C(=O)N[C@H](c1nc2ccc(CC3(C)CCNC3=O)cc2[nH]1)C(C1CC1)C1CC1` (stereo partly shown) [Compound 19]: the IC50 is greater than 1000 nM.

In the case of `CCn1nccc1C(=O)N[C@H](c1nc2cc(CC3CC(C(F)(F)F)NC3=O)cc(F)c2[nH]1)C(C1CC1)C1CC1` (stereo partly shown) [Compound 42], the IC50 was greater than 1000 nM. With `CCn1nccc1C(=O)N[C@H](c1nc2c(F)c(CC3CCC(C(F)(F)F)NC3=O)ccc2[nH]1)C(C1CC1)C1CC1` (single isomer, unassigned) [Compound 47], the IC50 is 100 to 1000 nM.

As to `CCn1nccc1C(=O)N[C@H](c1nc2cc(C[C@H]3CCNC3=O)cc(F)c2[nH]1)C1CCC(F)(F)CC1` [Compound 13], the IC50 lay in the range of 100 to 1000 nM. Take `CCn1nccc1C(=O)N[C@H](c1nc2ccc(C[C@@H]3CCCNC3=O)c(F)c2[nH]1)C(C1CC1)C1CC1` [Compound 36]: the IC50 is greater than 1000 nM. For `CCn1nccc1C(=O)N[C@H](c1nc2cc(CC3CCC(C(F)(F)F)NC3=O)cc(F)c2[nH]1)C(C1CC1)C1CC1` (stereo partly shown) [Compound 52] the value was 100 to 1000 nM; for `CCn1nccc1C(=O)N[C@H](c1nc2ccc(CC3CCC(C)NC3=O)cc2[nH]1)C(C1CC1)C1CC1` (stereo partly shown) [Compound 70], 100 to 1000 nM. In the case of `CCn1nccc1C(=O)N[C@H](c1nc2ccc(CC3CC(C(F)(F)F)CNC3=O)cc2[nH]1)C(C1CC1)C1CC1` (stereo partly shown) [Compound 71], the IC50 lay within 100 to 1000 nM. For `CCn1nccc1C(=O)N[C@H](c1nc2cc(CC3CCC(C(F)(F)F)NC3=O)cc(F)c2[nH]1)C(C1CC1)C1CC1` (stereo partly shown) [Compound 53] the value was 100 to 1000 nM; for `CCn1nccc1C(=O)N[C@H](c1nc2cc(CC3CCC(C(F)(F)F)NC3=O)ccc2[nH]1)C(C1CC1)C1CC1` (stereo partly shown) [Compound 43], 100 to 1000 nM; for `CCn1nccc1C(=O)N[C@H](c1nc2cc(C[C@@H]3C[C@@H](C(F)(F)F)NC3=O)ccc2[nH]1)C(C1CC1)C1CC1` (single isomer, unassigned) [Compound 4], 100 to 1000 nM.

Values taken from patent US20260226047A1, “BENZIMIDAZOLE AND AZA-BENZIMIDAZOLE BASED IL-17A MODULATORS AND USES THEREOF” (DICE ALPHA, INC., priority 2023, published 2026).
